Reference: patent US20150246025A1, “2-PHENYL-5-HETEROCYCLYL-TETRAHYDRO-2H-PYRAN-3-AMINE COMPOUNDS FOR USE IN THE TREATMENT OF DIABETES AND ITS ASSOCIATED DISORDERS” (CADILA HEALTHCARE LIMITED, priority 2012, published 2015)

Tests used:
[1] = Pharmacokinetic study in Wistar rats; assay type: in vivo; conditions: rat, plasma, po; male wistar rats, 2 mg/kg orally, n = 6, Mean ± SD
Procedure: Pharmacokinetic Study in Wistar Rats
The pharmacokinetic parameters of test compounds were determined in male wistar rats (n=6). Briefly, test compounds were administered orally/iv on a body weight basis to overnight fasted rats. Serial blood samples were collected in microcentrifuge tubes containing EDTA at pre-dose and post-dose after compounds administration, over a period of 168 hrs. Blood was collected at various time points and centrifuged at 4° C. The obtained plasma was frozen, stored at −70° C. and the concentrations of compounds in plasma were determined by the LC-MS/MS (Shimadzu LC 1 OAD, USA), using YMC hydrosphere C18 (2.0×50 mm, 3 μm) column (YMC Inc., USA). The pharmacokinetic parameters, such as Tmax, t1/2, AUC and % F were calculated using a non-compartmental model of WinNonlin software version 5.2.1.

DPP-IV enzyme = molecular target: T1, DPP-IV enzyme (Homo sapiens, UniProt P27487); assay: In vitro DPP-IV inhibitory activity using enzymatic (fluorescence-based) assay; assay type: biochemical; conditions: soluble human DPP-IV, H-Gly-Pro-AMC 200 μM, pH 7.8, 25° C., 30 min; read-out: % In-vitro DPPIV Inhibition IC50
T1 construct: soluble human proteins (DPP-IV enzyme) produced in a baculovirus expression system; made in house; host or cells: baculovirus expression system (Life Technologies)
Procedure: In Vitro DPP-IV Inhibitory Activity Using Enzymatic Assay:
In vitro enzyme (DPP-IV) inhibitory activity was determined using fluorescence-based assay (Anal. Biochem., 200, 352, 1992). The Gly-Pro-AMC was used as a substrate (which is cleaved by the enzymes to release the fluorescent AMC) and soluble human proteins (DPP-IV enzyme) produced in a baculovirus expression system (Life Technologies) was used as the enzyme source. The H-Gly-Pro-AMC (200 μM) was incubated with DPP-IV enzyme in the presence of various concentrations (30 & 100 nM) of test compounds. Reaction was carried out at pH 7.8 (HEPES buffer 25 mM containing 1.0% BSA, 140 mM NaCl, 16 mM MgCl2, 2.8% DMSO) in a total volume of 100 μl at 25° C. for 30 min., in the dark. Reaction was terminated with acetic acid (25 μl of 25% solution). Activity (fluorescence) was measured using Spectra Max fluorometer (Molecular Devices, Sunnyvale Calif.) by exciting at 380 nm and emission at 460 nm.

C57BL/6J mice = assay: In vivo antihyperglycaemic/antidiabetic activity (OGTT), acute single dose 120-min time-course; conditions: Mus musculus, 2 h; male C57BL/6J mice, acute single dose 0,3 mg/kg po, 120-min time-course, n = 6, Mean ± SEM; read-out: In vivo OGTT C57; % Glucose change
Procedure: Acute single dose 120-min time-course experiments were carried out in male C57BL/6J mice, age 8-12 weeks, bred in-house. Animals were housed in groups of 6 animals per cage, for a week, in order to habituate them to vivarium conditions (25±4° C., 60-65% relative humidity, 12: 12 h light: dark cycle, with lights on at 7.30 am). All the animal experiments were carried out according to the internationally valid guidelines following approval by the ‘Zydus Research Center animal ethical committee’.
The in-vivo glucose lowering properties of the test compounds were evaluated in C57BL/6J (mild hyperglycemic) animal models as described below. Two days prior to the study, the animals were randomized and divided into groups (n=6), based upon their fed glucose levels. On the day of experiment, food was withdrawn from all the cages, water was given ad-libitum and were kept for overnight fasting. Vehicle (normal saline)/test compounds were administered orally, on a body weight basis. Soon after the 0 min. blood collection from each animal, the subsequent blood collections were done at 30, 60 and 120 or upto 240 min., via retro-orbital route, under light ether anesthesia (Diabetes Obesity Metabolism, 7, 307, 2005; Diabetes, 52, 751, 2003).
Blood samples were centrifuged and the separated serum was immediately subjected for the glucose estimation. Serum for insulin estimation was stored at −70° C. until used for the insulin estimation. The glucose estimation was carried out with DPEC-GOD/POD method (Ranbaxy Fine Chemicals Limited, Diagnostic division, India), using Spectramax-190, in 96-microwell plate reader (Molecular devices Corporation, Sunnyvale, Calif.). […] The AUC and BCAUC obtained from graphs were analyzed for one way ANOVA, followed by Dunnett's post test, using Graph Pad prism software.

T1 sequence (P27487 39-766 limits assumed): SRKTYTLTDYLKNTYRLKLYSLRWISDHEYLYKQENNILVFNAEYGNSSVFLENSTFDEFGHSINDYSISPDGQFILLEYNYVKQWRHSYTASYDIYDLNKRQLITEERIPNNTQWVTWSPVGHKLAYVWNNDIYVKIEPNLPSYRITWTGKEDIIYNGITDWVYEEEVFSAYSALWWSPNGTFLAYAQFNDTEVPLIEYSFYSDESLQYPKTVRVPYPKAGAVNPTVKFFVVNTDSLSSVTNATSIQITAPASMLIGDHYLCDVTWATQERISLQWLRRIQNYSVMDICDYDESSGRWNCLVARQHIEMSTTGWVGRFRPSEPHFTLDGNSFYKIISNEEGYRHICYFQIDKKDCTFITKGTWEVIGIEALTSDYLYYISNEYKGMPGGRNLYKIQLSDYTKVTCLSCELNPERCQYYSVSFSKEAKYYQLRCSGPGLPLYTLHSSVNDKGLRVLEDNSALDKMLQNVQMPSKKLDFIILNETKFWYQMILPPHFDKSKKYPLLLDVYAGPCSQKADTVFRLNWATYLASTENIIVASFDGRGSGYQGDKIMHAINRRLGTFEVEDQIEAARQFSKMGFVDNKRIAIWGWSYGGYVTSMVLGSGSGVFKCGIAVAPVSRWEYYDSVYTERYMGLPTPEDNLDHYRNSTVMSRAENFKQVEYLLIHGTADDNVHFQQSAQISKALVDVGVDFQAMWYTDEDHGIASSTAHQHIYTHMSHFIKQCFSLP

Compound	AUC [1] [ng·h/mL]	Cmax [1] [ng/mL]	half-life [1] [h]	IC50 (DPP-IV enzyme) [nM]	change in vivo at 0.3 mg/kg (C57BL/6J mice) [%]
CS(=O)(=O)N1CC2CN([C@H]3CO[C@H](c4cc(F)ccc4F)[C@@H](N)C3)CC2C1 (stereo partly drawn) [Compound 1, (2R,3S,5R)-2-(2,5-difluorophenyl)-5-(5-(methylsulfonyl)-hexahydro-pyrrolo[3,4-c]pyrrol-2(1H)-yl)tetrahydro-2H-pyran-3-amine]	888 ± 129	148 ± 34.2	33.3 ± 2.07	< 30	-22.5 ± 4.5
N[C@H]1C[C@@H](N2CC3COCC3C2)CO[C@@H]1c1cc(F)ccc1F (stereo partly drawn) [Compound 3, (2R,3S,5R)-2-(2,5-difluorophenyl)-5-(tetrahydro-1H-furo[3,4-c]pyrrol-5(3H)-yl)tetrahydro-2H-pyran-3-amine]	2970 ± 1070	301 ± 44.3	48.2 ± 11.1	< 100	-27.6 ± 1.6
CS(=O)(=O)N1CC2=C(CN([C@H]3CO[C@H](c4cc(F)ccc4F)[C@@H](N)C3)C2)C1 [Compound 8, (2R,3S,5R)-2-(2,5-difluorophenyl)-5-(5-(methylsulfonyl)-5,6-dihydropyrrolo[3,4-c]pyrrol-2(1H,3H,4H)-yl)tetrahydro-2H-pyran-3-amine]	4750 ± 647	459 ± 52.2	59.5 ± 6.44	< 10	-49.1 ± 3.6
N[C@H]1C[C@@H](N2CC3=C(C2)CS(=O)(=O)C3)CO[C@@H]1c1cc(F)ccc1F [Compound 17, 5-((3R,5S,6R)-5-amino-6-(2,5-difluorophenyl)tetrahydro-2H-pyran-3-yl)-3,4,5,6-tetrahydro-1H-thieno[3,4-c]pyrrole 2,2-dioxide]	1550 ± 114	419 ± 45.5	32.5 ± 5.91		-27.3 ± 3.3
N[C@H]1C[C@@H](N2CC3=C(CN(C(=O)Nc4ccccc4)C3)C2)CO[C@@H]1c1cc(F)ccc1F [Compound 45, 5-((3R,5S,6R)-5-amino-6-(2,5-difluorophenyl)tetrahydro-2H-pyran-3-yl)-N-phenyl-3,4,5,6-tetrahydropyrrolo[3,4-c]pyrrole-2(1H)-carboxamide]				< 10	-34.9 ± 4.4
CC(=O)N[C@H]1C[C@@H](N2CC3=C(C2)CN(S(C)(=O)=O)C3)CO[C@@H]1c1cc(F)ccc1F [Compound 46, N-((2R,3S,5R)-2-(2,5-difluorophenyl)-5-(5-(methylsulfonyl)-5,6-dihydropyrrolo[3,4-c]pyrrol-2(1H,3H,4H)-yl)tetrahydro-2H-pyran-3-yl)acetamide]				< 100	-9.3 ± 3.8
CC(=O)N[C@H]1C[C@@H](N2CC3=C(CN(C(C)=O)C3)C2)CO[C@@H]1c1cc(F)ccc1F [Compound 47, N-((2R,3S,5R)-5-(5-acetyl-5,6-dihydropyrrolo[3,4-c]pyrrol-2(1H,3H,4H)-yl)-2-(2,5-difluorophenyl)tetrahydro-2H-pyran-3-yl)acetamide]				< 100	8.6 ± 5.9
N[C@H]1C[C@@H](N2CC3=C(CN(C=O)C3)C2)CO[C@@H]1c1cc(F)ccc1F [Compound 48, 5-((3R,5S,6R)-5-amino-6-(2,5-difluorophenyl)tetrahydro-2H-pyran-3-yl)-3,4,5,6-tetrahydropyrrolo[3,4-c]pyrrole-2(1H)-carbaldehyde]				< 10	-38.5 ± 1.5
N[C@H]1C[C@@H](N2CC3=C(CN(C(=O)C(F)(F)F)C3)C2)CO[C@@H]1c1cc(F)ccc1F [Compound 50, 1-(5-((3R,5S,6R)-5-amino-6-(2,5-difluorophenyl)tetrahydro-2H-pyran-3-yl)-5,6-dihydropyrrolo[3,4-c]pyrrol-2(1H,3H,4H)-yl)-2,2,2-trifluoroethanone]				< 10	-30 ± 1.4
